49 molecules from patent US6686350B1, “Cell adhesion inhibitors” (Biogen, Inc., priority 1996, dated 2004) can be followed below.

For this experiment, the target named is T1, VLA-4 (Homo sapiens, UniProt P05556+P13612).
T1 construct: endogenous in cells; host or cells: Jurkat cells
As to the kind of experiment: VLA-4 direct binding assay (VCAM-IgG alkaline phosphatase conjugate binding to Jurkat cells). As to conditions: for IC50: Table 1, Structure-Activity, assay and unit inferred, read-out: Act. An excerpt: A direct binding assay may also be employed to quantitate the inhibitory activity of the compounds of this invention. (“DBA”) In direct binding assays, for example, a VCAM-IgG fusion protein containing the first two immunoglobulin domains of VCAM (D1D2) attached above the hinge region of an IgG1 molecule (“VCAM 2D-IgG”), is conjugated to a marker enzyme, such as alkaline phosphatase (“AP”). The synthesis of this VCAM-IgG fusion is described in PCT publication WO 90/13300, the disclosure of which is herein incorporated by reference. The conjugation of that fusion to a marker enzyme can be achieved by cross-linking methods well-known in the art.
The VCAM-IgG enzyme conjugate is then placed in the wells of a multi-well filtration plate, such as that contained in the Millipore Multiscreen Assay System (Millipore Corp., Bedford, Mass.). Varying concentrations of the test inhibitory compound are then added to the wells followed by addition of VLA-4-expressing cells. The cells, compound and VCAM-IgG enzyme conjugate are mixed together and allowed to incubate at room temperature.
Following incubation, the wells are vacuum drained, leaving behind the cells and any bound VCAM. Quantitation of bound VCAM is determined by adding an appropriate calorimetric substrate for the enzyme conjugated to VCAM-IgG and determining the amount of reaction product. Decreased reaction product indicates increased binding inhibitory activity. The protocol is described more specifically below:
1. Block a 96 well Millipore Multiscreen Assay System filtration plate^1 with 200:l/well of blocking buffer (1×Phosphate Buffered Saline, 0.1%Tween 20, 1%BSA) for at least 1 hour at room temperature.
2. Drain the plate with the vacuum manifold, and wash with 200 μl/well of assay buffer (Tris Buffered Saline, 0.1% BSA, 2 mM glucose, 10 mM HEPES, pH 7.5) draining the plate in between. Repeat twice. Then blot the plate bottom on paper to remove excess buffer.
3. Prepare a 4 μg/ml VCAMIg-AP solution (Alkaline phosphatase coupled to VCAMIg) in assay buffer and filter with a 0.2:low protein binding syringe filter (Gelman Sciences #4454). From this stock, prepare a 0.4 μg/ml working solution of VCAMIg-AP in assay buffer. Add 25:l of 0.4 μg/ml VCAMIg-AP to every well.
5. Prepare dilutions of compounds to be tested in assay buffer. Concentrations should be 4× the desired final concentration and run in triplicate. Add 25 μl of the compound dilutions to designated wells.
7. Jurkat cells are centrifuged to remove cell culture media and washed once in assay buffer. Resuspend the washed Jurkat cells to a concentration of 8×10^6/ml in assay buffer containing 2 mM MnCl2. Pipeting the mixture up and down to ensure a uniform cell suspension. Add 50:l of cell suspension to each well except the NSB wells.
8. Gently tap the sides of the plate to mix well contents. Incubate the plate for 60 minutes at room temperature (RT).
9. Place the plate on the vacuum manifold to drain the well contents. Wash twice with 100 μl/well of wash buffer (assay buffer containing 1 mM MnCl2). Drain the plate and blot on paper towels.
10. Add 10 mg/ml of 4-Nitro phenyl phosphate to Substrate buffer (0.1M glycine, 1 mM ZnCl2, 1 mM MgCl2, pH 10.5). Add 100 μl/well and incubate for exactly 30 minutes at RT.
11. To stop the reaction, add 100 μl/well of 3N NaOH.
12. Read the 96-well plate in a Molecular Devices ELISA platereader at 405 nm. Analyze data with SoftMax software.

T1 sequence (P13612 34-1032): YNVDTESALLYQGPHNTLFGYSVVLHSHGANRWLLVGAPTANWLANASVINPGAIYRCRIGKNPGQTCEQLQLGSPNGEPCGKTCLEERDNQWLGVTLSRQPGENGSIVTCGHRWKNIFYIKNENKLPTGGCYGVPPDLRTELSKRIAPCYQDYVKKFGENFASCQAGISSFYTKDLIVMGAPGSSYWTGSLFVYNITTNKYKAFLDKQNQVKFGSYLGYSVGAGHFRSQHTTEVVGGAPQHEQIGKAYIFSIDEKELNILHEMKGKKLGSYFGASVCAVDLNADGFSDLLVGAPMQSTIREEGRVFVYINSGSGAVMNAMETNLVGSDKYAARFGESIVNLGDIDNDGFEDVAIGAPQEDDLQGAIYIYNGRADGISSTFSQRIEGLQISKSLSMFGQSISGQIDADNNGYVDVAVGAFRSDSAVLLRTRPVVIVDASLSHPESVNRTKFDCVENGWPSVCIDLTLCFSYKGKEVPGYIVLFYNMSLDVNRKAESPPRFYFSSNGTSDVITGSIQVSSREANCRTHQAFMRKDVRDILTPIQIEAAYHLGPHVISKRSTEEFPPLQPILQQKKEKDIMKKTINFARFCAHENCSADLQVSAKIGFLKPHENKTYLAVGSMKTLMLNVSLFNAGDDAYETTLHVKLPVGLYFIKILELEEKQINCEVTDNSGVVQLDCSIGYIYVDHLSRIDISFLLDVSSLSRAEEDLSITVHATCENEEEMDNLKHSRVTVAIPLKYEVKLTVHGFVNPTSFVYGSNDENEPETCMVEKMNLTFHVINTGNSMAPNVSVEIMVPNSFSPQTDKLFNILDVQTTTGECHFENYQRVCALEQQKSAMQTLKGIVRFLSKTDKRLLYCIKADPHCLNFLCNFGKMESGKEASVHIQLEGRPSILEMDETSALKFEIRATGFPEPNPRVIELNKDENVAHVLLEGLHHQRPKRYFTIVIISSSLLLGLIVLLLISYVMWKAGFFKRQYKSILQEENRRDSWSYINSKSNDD
T1 sequence (P05556 21-798): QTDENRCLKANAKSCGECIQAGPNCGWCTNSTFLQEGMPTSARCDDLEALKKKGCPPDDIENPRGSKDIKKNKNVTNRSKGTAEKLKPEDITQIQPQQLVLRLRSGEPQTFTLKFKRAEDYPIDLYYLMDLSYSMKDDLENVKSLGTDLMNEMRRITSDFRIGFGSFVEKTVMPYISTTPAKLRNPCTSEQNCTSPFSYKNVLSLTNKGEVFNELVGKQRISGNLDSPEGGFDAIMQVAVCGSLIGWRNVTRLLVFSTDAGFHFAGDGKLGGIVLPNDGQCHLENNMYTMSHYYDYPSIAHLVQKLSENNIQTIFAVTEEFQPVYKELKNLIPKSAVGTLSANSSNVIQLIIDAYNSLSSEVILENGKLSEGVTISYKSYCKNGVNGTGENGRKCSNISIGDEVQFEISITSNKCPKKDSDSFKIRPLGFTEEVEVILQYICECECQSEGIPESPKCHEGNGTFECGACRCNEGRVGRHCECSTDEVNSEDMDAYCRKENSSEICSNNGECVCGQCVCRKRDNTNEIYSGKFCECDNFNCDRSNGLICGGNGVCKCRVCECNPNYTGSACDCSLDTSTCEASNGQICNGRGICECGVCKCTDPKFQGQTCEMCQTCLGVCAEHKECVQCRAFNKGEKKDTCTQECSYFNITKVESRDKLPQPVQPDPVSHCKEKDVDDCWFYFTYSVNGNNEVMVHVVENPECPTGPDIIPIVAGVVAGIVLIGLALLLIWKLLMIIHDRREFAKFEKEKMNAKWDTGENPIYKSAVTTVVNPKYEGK

For the molecule `CCC(CC(=O)O)N1CC(=O)N(C)c2ccc(NC(=O)Cc3ccc(NC(=O)Nc4ccccc4C)cc3)cc2C1=O` (stereo not shown) [BX60], the IC50 is 103 nM.

As to `CC(C)CCN(CC(=O)Nc1ccc(NC(=O)Nc2ccccc2)cc1)C(=O)CN(CCC(=O)O)C(=O)c1ccccc1` [AX33], the IC50 amounted to 95 nM. As to `CN1Cc2ccc(NC(=O)Cc3ccc(NC(=O)Nc4ccccc4Br)cc3)cc2CN(CC(=O)O)C1=O` [BX65], the IC50 came out at 65 nM. Turning to `COc1cccc(C(=O)N(CCC(=O)O)CC(=O)N(CCC(C)C)CC(=O)Nc2ccc(N3CCOCC3)c(Cl)c2)c1` [AX9], the IC50 came out at 7380 nM.

As to `Cc1ccccc1NC(=O)Nc1ccc(NC(=O)CN(C)C(=O)CN(CCC(=O)O)C(=O)c2ccccc2)cc1` [Compound A], the VLA-4 inhibitory activity result (qualitative statement) was “having VLA-4 inhibitory activity”. In the case of `COc1ccc(C(CC(=O)O)NC(=O)C(CC(=O)Nc2ccc(CCSc3ccccc3C)cc2)CC(C)C)cc1OC` (stereo not shown) [SX32], the IC50 came out at 660 nM.

Consider `COc1cccc(C(=O)N(CCC(=O)O)CC(=O)N(CCC(C)C)CC(=O)Nc2ccc(NC(=O)c3c[nH]c4ccccc34)cc2)c1` [AX26], for which the IC50 turned out to be 240 nM. Still for that read-out and setting: the value for `Cc1ccccc1NC(=O)Nc1ccc(NC(=O)CC(CC(C)C)C(=O)NC(C)CC(=O)O)cc1` (stereo not shown) [SX50] was 167 nM.

Regarding `CN1C(=O)CN(CCC(=O)O)C(=O)c2cc(NC(=O)Cc3ccc(NC(=O)Nc4ccccc4)cc3)ccc21` [BX32], the IC50 is 959 nM.

For the molecule `CC(C)CCN(CC(=O)Nc1ccccc1)C(=O)CN(CCC(=O)O)C(=O)c1ccccc1` [AX12], the IC50 was 4120 nM. In the case of `COc1ccc([C@H](CC(=O)O)NC(=O)C(C)CC(=O)Nc2ccc(NC(=O)Nc3ccccc3C)cc2)cc1OC` (stereo partly shown) [SX9], the IC50 stood at 5120 nM. Regarding `Cc1ccccc1NC(=O)Nc1ccc(CC(=O)NCc2cccc(OCC(=O)O)c2)cc1` [RX11], the IC50 was determined as 1140 nM.

On to `Cc1ccccc1NC(=O)Nc1ccc(CC(=O)Nc2cc3c(cc2Cl)N(C)C(=O)CN(CCC(=O)O)C3=O)cc1` [BX37], for which the IC50 came out at 643 nM. On the same count and under the same terms, the value for `Cc1ccccc1NC(=O)Nc1ccc(NC(=O)[C@@H]2CCCN2C(=O)CC[C@@H](C)CC(=O)O)cc1` [CX9] was 332 nM. `Cc1ccccc1NC(=O)Nc1ccc(NC(=O)[C@@H]2CCCN2C(=O)NCCC(=O)O)cc1` [CX7]: the IC50 was found to be 190 nM.

Regarding `Cc1ccccc1NC(=O)Nc1ccc(N2CC[C@@H](CC(=O)N[C@H](C)CC(=O)O)C2=O)cc1` [SX26], the IC50 was 769 nM.

As to `Cc1ccccc1NC(=O)Nc1ccc(CC(=O)Nc2ccc3c(c2)C(=O)N(CCC(=O)O)CC(=O)N3CC2CC2)cc1` [BX46], the IC50 came out at 194 nM. On the same count and under the same terms, the value for `Cc1ccccc1NC(=O)Nc1ccc(NC(=O)CN(CCC(C)C)C(=O)CN(CCC(=O)O)C(=O)CN2CCOCC2)cc1` [AX42] was 52 nM; that for `Cc1ccccc1NC(=O)Nc1ccc(NC(=O)C2CC2C(=O)N[C@@H](CC(=O)O)c2ccc3c(c2)OCO3)cc1` (stereo partly shown) [SX25] was 810 nM; that for `COc1ccc(C(CC(=O)O)NC(=O)[C@@H](CC(=O)Nc2ccc(COc3ccccc3C)cc2)CC(C)C)cc1OC` (stereo partly shown) [SX31] was 680 nM. The same measure, in the same setting: in the case of `Cc1ccccc1NC(=O)Nc1ccc(CC(=O)Nc2ccc3c(c2)CN(CCC(=O)O)C(=O)CN3CCC(=O)O)cc1` [BX71] it was 28.5 nM. Still for that read-out and setting: in the case of `COc1ccc(CNC(=O)C2=C(C(=O)N[C@@H](CC(=O)O)c3ccc(OC)cc3)CCC2)cc1` [MX2] it was 250 nM; in that of `COc1ccc(NC(=O)Cc2ccc(NC(=O)Nc3ncccc3C)cc2)cc1OCCCC(=O)O` [RX7], 2300 nM. As for `Cc1ccccc1NC(=O)Nc1ccc(NC(=O)[C@@H]2CCCN2C(=O)CC(C)CCC(=O)O)cc1` (stereo partly shown) [CX11], the IC50 was 144 nM. The same measure, in the same setting: the value for `Cc1ccccc1NC(=O)Nc1ccc(CC(=O)NCc2ccc3c(c2)C(=O)N(CCC(=O)O)CC(=O)N3C)cc1` [BX16] was 5120 nM; that for `COc1ccc([C@H](CC(=O)O)NC(=O)CCC(=O)Nc2ccc(NC(=O)Nc3ccccc3)c(O)c2)cc1OC` [SX45] was 216 nM; that for `Cc1ccccc1NC(=O)Nc1ccc(NC(=O)C2CCCN2C(=O)CCCCC(=O)O)cc1` (stereo not shown) [CX1] was 1350 nM. The same measure, in the same setting: the value for `Cc1ccccc1NC(=O)Nc1ccc(NC(=O)CN(CCC(C)C)C(=O)CN(CCC(=O)O)C(=O)COc2ccccc2)cc1` [AX25] was 246 nM.

On to `COc1ccc(C(CC(=O)O)NC(=O)C(CC(=O)Nc2ccc(NC(=O)Nc3ccccc3C)cc2)NS(C)(=O)=O)cc1OC` (stereo not shown) [SX47], for which the IC50 came out at 196 nM. As to `Cc1ccccc1NC(=O)Nc1ccc(CC(=O)Nc2cccc(OCCC(=O)O)c2)cc1` [RX19], the IC50 was found to be 317 nM.

`Cc1ccccc1NC(=O)Nc1ccc(NC(=O)c2ccc3c(c2)C(=O)N(CCC(=O)O)CC(=O)N3C)cc1` [BX17]: the IC50 amounted to 977 nM. `Cc1ccccc1NC(=O)Nc1ccc(NC(=O)[C@@H]2CCCN2C(=O)NCCCC(=O)O)cc1` [CX2]: the IC50 is 8940 nM. On the same count and under the same terms, in the case of `COc1ccc([C@H](CC(=O)O)NC(=O)C(CC(=O)Nc2ccc(CCCc3ccccc3)cc2)CC(C)C)cc1OC` (stereo partly shown) [SX14] it was 8240 nM; in that of `Cc1ccccc1NC(=O)Nc1ccc(NC(=O)CCC(=O)N[C@H](C)CC(=O)O)cc1` [SX35], 468 nM. Same read-out and setting: in the case of `C=CC[C@H](CC(=O)O)NC(=O)C(C)CC(=O)Nc1ccc(NC(=O)Nc2ccccc2C)cc1` (stereo partly shown) [SX54] it was 58.5 nM; in that of `Cc1ccccc1NC(=O)Nc1ccc(NC(=O)Nc2cccc(OCCCC(=O)O)c2)cc1` [RX13], 686 nM.

For the molecule `CC(C)CN(CC(=O)Nc1ccc(NC(=O)Nc2ccccc2)cc1)C(=O)CN(CCC(=O)O)C(=O)Cc1ccccc1` [AX24], the IC50 stood at 300 nM. Consider `Cc1ccccc1NC(=O)Nc1ccc(CC(=O)Nc2ccc3c(c2)C(=O)N(C)CC(=O)N3CCC(=O)O)cc1` [BX42], for which the IC50 was found to be 326 nM.

As to `COc1ccc([C@H](CC(=O)O)NC(=O)C(CC(=O)Nc2ccc(NC(=O)Nc3ccccc3)cc2)CC(C)C)cc1OC` (stereo partly shown) [SX41], the IC50 was found to be 310 nM.

In the case of `COCC(C)N1C(=O)CN(CCC(=O)O)C(=O)c2cc(NC(=O)Cc3ccc(NC(=O)Nc4ccccc4C)cc3)ccc21` (stereo not shown) [BX54], the IC50 worked out at 128 nM. Same read-out and setting: in the case of `CN1C(=O)CN(CCC(=O)O)C(=O)c2cc(NC(=O)Cc3ccc(NC(=O)c4c[nH]c5ccccc45)cc3)ccc21` [BX64] it was 24 nM; in that of `Cc1ccccc1NC(=O)Nc1ccc(CC(=O)Nc2ccc3c(c2)C(=O)N(CCC(=O)O)CC(=O)N3Cc2ccccc2)cc1` [BX58], 116 nM. Consider `Cc1ccccc1NC(=O)Nc1ccc(CC(=O)Nc2ccc3c(c2)C(=O)N(CCC(=O)O)CC(=O)N3CC2CCCO2)cc1` (stereo not shown) [BX55], for which the IC50 came to 120 nM. Turning to `Cc1ccccc1NC(=O)Nc1ccc(NC(=O)CN(CCC(C)C)C(=O)CN(CCC(=O)O)C(=O)C2CCCCC2)cc1` [AX29], the IC50 amounted to 890 nM.

Consider `Cc1ccccc1NC(=O)Nc1ccc(NC(=O)CN(CCC(C)C)C(=O)CN(CCC(=O)O)C(=O)CBr)cc1` [AX36], for which the IC50 was 63.2 nM. As to `COc1ccc([C@H](CC(=O)O)NC(=O)C(CC(=O)Nc2ccc(CCc3ccccc3C)cc2)CC(C)C)cc1OC` (stereo partly shown) [SX39], the IC50 was 397 nM. With `Cc1ccccc1NC(=O)Nc1ccc(CC(=O)Nc2ccccc2OCCC(=O)O)cc1` [UX1], the IC50 was determined as 4500 nM. Same read-out and setting: in the case of `COc1cccc(C(=O)N(CCC(=O)O)CC(=O)N(CCC(C)C)CC(=O)Nc2ccc(-c3nnc(-c4ccccc4)o3)cc2)c1` [AX5] it was 35 nM.

Take `Cc1ccccc1NC(=O)Nc1ccc(CC(=O)Nc2ccc3c(c2)C(=O)N(CCC(=O)O)CC(=O)N3CCc2ccccc2)cc1` [BX52]: the IC50 was determined as 132 nM.
